Test: Multistage LLE (MLLE) of binary dye mixture on EWOD device with IL extractant
Format: physicochemical
Settings: binary 1:1 green/yellow dye sample
Method: The sample phase was prepared by mixing equal amounts of these two dyes. The final concentration of each analyte in the sample mixture formed was 1250 μg/ml for all the EWOD LLE experiments. […]
For the LLE process on an EWOD DMF electrode array, the droplets were generated, mixed, and split during the process. […] The on-chip concentration method quantified the yield of the LLE process. […]
In order to explore this characteristic of EWOD, MLLE was performed in this study with two cycles of LLE. […] After each cycle of the process, the sample droplet was transported to the concentration measurement electrode, and the voltage measurement was done for absorbance.
Next, the results of binary separation by MLLE performed on the EWOD device 20 was compared with theoretical values. The theoretical values were calculated from the partition coefficient values of each solute obtained in the manner described above. […]

- green dye extracted after first cycle of LLE on EWOD (IL extractant, extraction time 5 minutes): ~50%
- initial green dye extracted at the end of the second cycle (fresh IL droplet, two MLLE cycles): ~60%
Compound: Cc1ccc(Nc2ccc(Nc3ccc(C)cc3S(=O)(=O)[O-])c3c2C(=O)c2ccccc2C3=O)c(S(=O)(=O)[O-])c1.[Na+].[Na+] [green dye, acid green 25]

From patent US11642671B2, “Electrowetting on dielectric (EWOD) device to perform liquid-to-liquid extraction (LLE) of biomolecules and systems and methods for using the EWOD device” (Board of Regents, The University of Texas System, priority 2019, dated 2023)
